Assay results as given in ChEMBL document CHEMBL1136480, “Successful shape-based virtual screening: the discovery of a potent inhibitor of the type I TGFbeta receptor kinase (TbetaRI)” (Bioorg Med Chem Lett, 2003).

Tested on: HepG2
Assay: Inhibition of TGF-beta-induced expression of PAI-luciferase reporter in HepG2 cells
Assay type: functional, cell-based
Settings: Homo sapiens

IC50: 60 nM
SMILES: c1ccc(-c2n[nH]cc2-c2ccnc3ccccc23)nc1
